Consider six compounds from paper PMC10252509, “Study on the In Silico Screening and Characterization, Inhibition Mechanisms, Zinc-Chelate Activity, and Stability of ACE-Inhibitory Peptides Identified in Naked Oat Bran Albumin Hydrolysates” (Foods, 2023).

The subject of data set [1] is ACE. More on the design: method as in 2 sources, one per row (each row's own in cited_ref): ref [24] = [24]; PMID 32220144; doi:10.1111/1750-3841.15115; 24. Zheng Y. Wang X. Zhuang Y. Li Y. Shi P.Q. Tian H. Li X.T. Chen X. Isolation of novel ACE-inhibitory peptide from naked oat globulin hydrolysates in silico approach: Molecular docking, in vivo anti ||| ref [4],[35] = [4]; doi:10.1016/j.lwt.2022.114008; 4. Renjuan L. Xiuli Z. Liping S. Yongliang Z. Identification, in silico screening, and molecular docking of novel ACE inhibitory peptides isolated from the edible symbiot Boletus griseus-Hypomyces chr || [35]; doi:10.1016/j.lwt.2022.113196; 35. Wei G. Zhao Q. Wang D. Fan Y. Shi Y. Huang A. Novel ACE inhibitory, antioxidant and α-glucosidase inhibitory peptides identified from fermented rubing cheese through peptidomic and molecular docki. The note with it: literature comparison; ref [4],[35]; read-out: ACE inhibition IC50; cited from earlier work.

Data set [2] in a line: Zinc solubility of peptide-Zn complexes during simulated gastrointestinal digestion. The note with it: intestinal phase, from 120 to 240 min; PAR method.
Data set [3] deals with T1, ACE (Oryctolagus cuniculus, UniProt P12822).
T1 construct: purchased Sigma (St. Louis, MO, USA)
T1 sequence (P12822 34-1310): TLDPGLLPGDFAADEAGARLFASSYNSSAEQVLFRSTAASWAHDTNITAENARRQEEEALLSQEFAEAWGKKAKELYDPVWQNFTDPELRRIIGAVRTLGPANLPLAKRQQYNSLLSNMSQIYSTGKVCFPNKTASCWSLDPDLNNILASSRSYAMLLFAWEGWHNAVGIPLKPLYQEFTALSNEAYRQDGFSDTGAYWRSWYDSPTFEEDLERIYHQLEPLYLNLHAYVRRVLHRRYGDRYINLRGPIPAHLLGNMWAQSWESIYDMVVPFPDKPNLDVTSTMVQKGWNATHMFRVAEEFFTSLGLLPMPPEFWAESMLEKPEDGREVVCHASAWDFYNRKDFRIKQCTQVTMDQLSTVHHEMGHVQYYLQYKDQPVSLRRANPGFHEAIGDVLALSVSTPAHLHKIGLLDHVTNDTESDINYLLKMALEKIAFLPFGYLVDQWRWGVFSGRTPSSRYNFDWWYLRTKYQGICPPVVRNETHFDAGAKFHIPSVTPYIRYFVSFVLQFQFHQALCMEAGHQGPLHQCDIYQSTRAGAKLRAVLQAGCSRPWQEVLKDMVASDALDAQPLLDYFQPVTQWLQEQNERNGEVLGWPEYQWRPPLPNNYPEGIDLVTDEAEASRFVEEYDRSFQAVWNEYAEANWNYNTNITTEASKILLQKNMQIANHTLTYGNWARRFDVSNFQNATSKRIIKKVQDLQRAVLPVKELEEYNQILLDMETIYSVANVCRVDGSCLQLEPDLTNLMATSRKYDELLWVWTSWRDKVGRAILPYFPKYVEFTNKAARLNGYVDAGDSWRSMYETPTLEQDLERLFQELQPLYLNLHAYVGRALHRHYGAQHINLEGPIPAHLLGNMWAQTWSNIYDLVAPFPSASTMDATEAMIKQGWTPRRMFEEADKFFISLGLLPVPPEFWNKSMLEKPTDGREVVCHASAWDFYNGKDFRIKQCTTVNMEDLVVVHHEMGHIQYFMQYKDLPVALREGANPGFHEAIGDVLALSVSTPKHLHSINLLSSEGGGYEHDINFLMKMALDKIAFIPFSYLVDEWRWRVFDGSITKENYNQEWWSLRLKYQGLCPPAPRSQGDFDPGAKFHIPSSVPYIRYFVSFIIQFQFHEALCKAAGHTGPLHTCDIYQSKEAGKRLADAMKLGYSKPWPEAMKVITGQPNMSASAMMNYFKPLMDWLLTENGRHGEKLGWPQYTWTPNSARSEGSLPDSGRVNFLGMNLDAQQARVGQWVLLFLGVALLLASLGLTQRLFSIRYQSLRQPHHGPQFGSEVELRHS
The experiment in a line: ACE inhibition capacity (HHL substrate, hippuric acid at 228 nm). The class given is biochemical. The note with it: synthesized peptide; ACE 25 mU, HHL 8.3 mmol/L, 37 °C, 60 min, absorbance 228 nm; from regression of inhibition vs concentration; n at least 3; read-out: ACE-inhibitory activity (IC50). The method, then: Briefly, ACE (25 mU) was pre-incubated at 37 °C for 10 min. Then, ACE (75 µL), 225 µL of HHL (8.3 mmol/L), and peptide solution (75 µL) were mixed and stirred at 75 r/min and 37 °C for 60 min [28]. The reaction was stopped through the addition of 0.375 mL of HCl (1 mol/L). Next, 2.1 mL of ethyl acetate was added to extract the produced hippuric acid. After centrifugation at 14,000× g for 150 s, 1 mL of the upper solution (ethyl acetate extraction) was transferred into a glass test tube and heated at 120 °C for 32 min. Then, deionized water (1 mL) was added and determined at 228 nm. The control group was subjected to the same procedures but without samples. The inhibition ability of the samples toward ACE was defined as the percentage of the difference in absorbance at 228 nm between the sample and control compared to the absorbance of the control at 228 nm. The concentration of peptides needed to inhibit half of ACE activity was defined as IC50.

Data set [4] can be described thus: Zn-chelating ability (4-(2-Pyridinazo)-resorcinol colorimetric method). It is filed as physicochemical. The note with it: 350 μg sample, zinc sulfate 0.25 mmol/L, HEPES-KOH, DTT, 37 °C, 12 min; PAR method, 500 nm; reduction of zinc ions per mass of sample; mean ± SD, n at least 3. On the procedure: NOBAH peptides (350 μg), 0.5 mL zinc sulfate solution (0.25 mmol/L), 0.5 mL DTT (8 mmol/L), 1 mL HEPES-KOH buffer (100 μmol/L), and 8 mL dH2O were mixed thoroughly. After stirring at 37 °C and 175 r/min for 12 min, 1 mL of reaction solution was sucked out and used for zinc concentration determination using the 4-(2-Pyridinazo)-resorcinol method. The standard regression curve of zinc concentration (x, μg/mL) with the absorbance at 500 nm (y) was y = 0.0901n(x) + 0.1012, R^2 = 0.9802 [27]. The zinc chelation rate of the sample was defined as the reduction of zinc ions in the reaction solution per mass of the sample (mg/g).
Amino acid sequence identification was conducted on a Q Exactive hybrid quadrupole orbitrap mass spectrometer (Thermo Fisher, Bremen, Germany) according to the description of Li et al.. Peak-Studio-7.5-De-Novo™ software (Bioinformatics Solutions, Inc., Waterloo, ON, Canada) was employed to analyze data from the mass spectrometer. The National Center for Biotechnology Information Database (Bethesda, MD, USA) was used for the verification of the obtained sequences. The PAR colorimetric method was employed to measure the Zn-chelating ability of the obtained sequences. Potential antihypertensive effects were predicted using the database AHTPDB [29]. […] Moreover, the physicochemical characteristics of the obtained peptides were analyzed with the database AHTPDB.

As a reminder, the IC50 is the concentration at which inhibition is half-maximal.

Where no end group is shown, it is not given here.

For the compound LFRPE, the half-inhibitory concentration (IC50) in the data set with ACE [1] was 11.3 µM.

Turning to `O=C([O-])[C@H](O)[C@@H](O)[C@H](O)[C@H](O)CO.O=C([O-])[C@H](O)[C@@H](O)[C@H](O)[C@H](O)CO.[Zn+2]` [zinc gluconate, Zinc gluconate], the “Zinc solubility compared with zinc sulfate” value in data set [2] is reported as “higher zinc solubility than that of zinc sulfate”.

Consider GYHGH [GYHGH, Gly-Tyr-His-Gly-His], for which the half-maximal inhibitory concentration (IC50) at ACE [3] came out at 322 µM.

“QPHQPL [peptide identified in rubing cheese]”: in the data set on ACE [1], the 50% inhibitory concentration (IC50) was 464 µM.

For QYVPF [QYVPF, Gln-Tyr-Val-Pro-Phe], the 50% inhibitory concentration (IC50) on ACE [3] amounted to 243 µM.

For the compound “GTTGGMGT [peptide identified in NOBAH-6-D]”, in data set [4], the Zinc chelating capacity turned out to be 3.36 ± 0.16 e mg/g.
